Data on three compounds can be found in US20170051034A1 (Novo Nordisk A/S, priority 2010, published 2017).

SMILES strings stand for the structures. Numbered stars: 1 amine (or outer) side, 2 acyl side, 3 side chain; on linkers, the order of the positions; unused ones are H or OH. Side chains are listed from the residue outwards. Peptide text beside a SMILES is read from it. * marks the point of attachment. Palmitoyl(16-(5-tetrazolyl)) = O=C(CCCCCCCCCCCCCCCc1nnn[nH]1)*; C20 diacid = O=C(O)CCCCCCCCCCCCCCCCCCC(=O)*; γGlu = O=C(O)[C@H](CCC(=O)[*:2])N[*:1]; AEEA = NCCOCCOCC(=O)O

Data set [1] concerns the target glucagon receptor (Homo sapiens, UniProt P47871). Put plainly: cell-based.
Method: The cells (14000 per well) were incubated (37° C., 5% CO2) overnight in 384-well plates. Next day the cells were loaded with a calcium responsive dye that only distributed into the cytoplasm. Probenecid, an inhibitor of the organic anion transporter, was added to prevent the dye from leaving the cell. A PDE inhibitor was added to prevent formatted cAMP from being degraded. […] End point data were collected after 6 minutes. An increase in intracellular cAMP was proportional to an increased in calcium concentrations in the cytoplasm. […] EC50-values were calculated in Prism5.
Data set [2] can be described thus: ThT fibrillation assay (lag time and recovery). The data set is classed as physicochemical. The note with it: Table 2. How it is done: This has traditionally been measured by visual inspection of the sample. However, that kind of measurement is very subjective and depending on the observer. Therefore, the application of a small molecule indicator probe is much more advantageous. […] Enzymol.
The constant t0 is the time needed to reach 50% of maximum fluorescence. The two important parameters describing fibril formation are the lag-time calculated by t0−2τ and the apparent rate constant kapp 1/τ.
Samples were prepared freshly before each assay. […] The pH of the sample was adjusted to the desired value using appropriate amounts of concentrated NaOH and HCl. Thioflavin T was added to the samples from a stock solution in H2O to a final concentration of 1 μM.
The plate was sealed with Scotch Pad (Qiagen).
Each run was initiated by incubating the plate at the assay temperature for 10 min. The plate was measured every 20 minutes for a desired period of time. Between each measurement, the plate was shaken and heated as described.
The supernatant was filtered through a 0.22 μm filter and an aliquot was transferred to a HPLC vial.
The measurement points were saved in Microsoft Excel format for further processing and curve drawing and fitting was performed using GraphPad Prism. […] The data set may be fitted to Eq. (1).

glucagon receptor, sequence (P47871 26-477): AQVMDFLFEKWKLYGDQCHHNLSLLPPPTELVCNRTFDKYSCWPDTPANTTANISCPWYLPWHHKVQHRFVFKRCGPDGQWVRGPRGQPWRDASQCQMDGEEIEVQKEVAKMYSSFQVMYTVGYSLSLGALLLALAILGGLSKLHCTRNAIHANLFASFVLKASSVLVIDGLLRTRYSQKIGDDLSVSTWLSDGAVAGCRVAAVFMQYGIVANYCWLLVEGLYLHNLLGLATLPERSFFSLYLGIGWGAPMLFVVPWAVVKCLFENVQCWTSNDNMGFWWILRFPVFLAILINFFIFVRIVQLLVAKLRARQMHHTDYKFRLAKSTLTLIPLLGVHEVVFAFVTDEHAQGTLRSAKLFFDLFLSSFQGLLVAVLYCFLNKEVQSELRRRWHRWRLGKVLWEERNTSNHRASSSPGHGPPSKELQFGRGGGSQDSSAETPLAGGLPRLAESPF

In turn, `CC(C)C[C@H](NC(=O)[C@H](Cc1ccc(O)cc1)NC(=O)[C@H](CCCCN)NC(=O)[C@H](CO)NC(=O)[C@H](Cc1ccc(O)cc1)NC(=O)[C@H](CC(=O)O)NC(=O)[C@H](CO)NC(=O)[C@@H](NC(=O)[C@H](Cc1ccccc1)NC(=O)[C@@H](NC(=O)CNC(=O)[C@H](CCC(N)=O)NC(=O)[C@H](CO)NC(=O)[C@@H](N)Cc1c[nH]cn1)[C@@H](C)O)[C@@H](C)O)C(=O)N[C@@H](CC(=O)O)C(=O)N[C@@H](CO)C(=O)N[C@@H](CCCCN)C(=O)N[C@@H](CCCCN)C(=O)N[C@@H](C)C(=O)N[C@@H](CCC(N)=O)C(=O)N[C@@H](CCC(=O)O)C(=O)N[C@@H](Cc1ccccc1)C(=O)N[C@H](C(=O)N[C@@H](CCC(N)=O)C(=O)N[C@@H](Cc1c[nH]c2ccccc12)C(=O)N[C@@H](CC(C)C)C(=O)N[C@@H](CC(C)C)C(=O)N[C@@H](CC(N)=O)C(=O)N[C@H](C(=O)O)[C@@H](C)O)C(C)C` [[K^17, K^18, E^21, L^27] Glucagon, H—HSQGTFTSDYSKYLDSKKAQEFVQWLLNT—OH, reference compound] (H-HSQGTFTSDYSKYLDSKKAQEFVQWLLNT-OH) registered an EC50 in data set [1] of 0.003 nM. Besides, the “ThT assay [Lag time]” value in data set [2] came out at 1 h. In turn, `CC(C)C[C@H](NC(=O)[C@H](Cc1ccc(O)cc1)NC(=O)[C@H](CCCCN)NC(=O)[C@H](CO)NC(=O)[C@H](Cc1ccc(O)cc1)NC(=O)[C@H](CC(=O)O)NC(=O)[C@H](CO)NC(=O)[C@@H](NC(=O)[C@H](Cc1ccccc1)NC(=O)[C@@H](NC(=O)CNC(=O)[C@H](CCC(N)=O)NC(=O)[C@H](CO)NC(=O)[C@@H](N)Cc1c[nH]cn1)[C@@H](C)O)[C@@H](C)O)C(=O)N[C@@H](CC(=O)O)C(=O)N[C@@H](CO)C(=O)N[C@@H](CCCCN)C(=O)N[C@@H](CCCCN)C(=O)N[C@@H](C)C(=O)N[C@@H](CCC(N)=O)C(=O)N[C@@H](CCC(=O)O)C(=O)N[C@@H](Cc1ccccc1)C(=O)N[C@H](C(=O)N[C@@H](CCCCNC(=O)COCCOCCNC(=O)COCCOCCNC(=O)CC[C@H](NC(=O)CCCCCCCCCCCCCCCc1nnn[nH]1)C(=O)O)C(=O)N[C@@H](Cc1c[nH]c2ccccc12)C(=O)N[C@@H](CC(C)C)C(=O)N[C@@H](CC(C)C)C(=O)N[C@@H](CO)C(=O)N[C@H](C(=O)O)[C@@H](C)O)C(C)C` [Example 70, N^ε24-[2-[2-[2-[[2-[2-[2-[[(4S)-4-carboxy-4-[16-(1H-tetrazol-5-yl)hexadecanoylamino]butanoyl]amino]ethoxy]ethoxy]acetyl]amino]ethoxy]ethoxy]acetyl]-[Lys^17,Lys^18,Glu^21,Lys^24,Leu^27,Ser^28]-Glucagon] (H-HSQGTFTSDYSKYLDSKKAQEFVK([AEEA-AEEA-γGlu-Palmitoyl(16-(5-tetrazolyl))])WLLST-OH) gave an EC50 in data set [1] of 0.134 nM. On the same count and under the same terms, under `CC(C)C[C@H](NC(=O)[C@H](Cc1ccc(O)cc1)NC(=O)[C@H](CCCCN)NC(=O)[C@H](CO)NC(=O)[C@H](Cc1ccc(O)cc1)NC(=O)[C@H](CC(=O)O)NC(=O)[C@H](CO)NC(=O)[C@@H](NC(=O)[C@H](Cc1ccccc1)NC(=O)[C@@H](NC(=O)CNC(=O)[C@H](CCC(N)=O)NC(=O)[C@H](CO)NC(=O)[C@@H](N)Cc1c[nH]cn1)[C@@H](C)O)[C@@H](C)O)C(=O)N[C@@H](CC(=O)O)C(=O)N[C@@H](CO)C(=O)N[C@@H](CCCCN)C(=O)N[C@@H](CCCCN)C(=O)N[C@@H](C)C(=O)N[C@@H](CCC(N)=O)C(=O)N[C@@H](CCC(=O)O)C(=O)N[C@@H](Cc1ccccc1)C(=O)N[C@H](C(=O)N[C@@H](CCCCNC(=O)COCCOCCNC(=O)COCCOCCNC(=O)CC[C@H](NC(=O)CCCCCCCCCCCCCCCCCCC(=O)O)C(=O)O)C(=O)N[C@@H](Cc1c[nH]c2ccccc12)C(=O)N[C@@H](CC(C)C)C(=O)N[C@@H](CC(C)C)C(=O)N[C@@H](CC(N)=O)C(=O)N[C@H](C(=O)O)[C@@H](C)O)C(C)C` [Example 66, N^ε24-[2-[2-[2-[[2-[2-[2-[[(4S)-4-carboxy-4-(19-carboxynonadecanoylamino)butanoyl]amino]ethoxy]ethoxy]acetyl]amino]ethoxy]ethoxy]acetyl]-[Lys^17,Lys^18,Glu^21,Lys^24,Leu^27]-Glucagon] (H-HSQGTFTSDYSKYLDSKKAQEFVK([AEEA-AEEA-γGlu-C20 diacid])WLLNT-OH) stands 6.35 nM.
